One assay deals with adult S. mansoni couples. As to the kind of experiment: In vitro screening of OGHL compounds and analogues against adult S. mansoni couples (Giessen). The assay is classed as cell-based, Schistosoma mansoni. To be noted: 10 µM; for Effect on egg production: after 24 h, compared to control. The protocol:
For in vitro culture in Giessen, M199 medium (Gibco) containing 10% newborn calf serum, 1% HEPES (1 M) and 1% ABAM solution (10,000 units penicillin, 10 mg streptomycin and 25 µg amphotericin B per millilitre) were used. After perfusion, the worms were transferred to petri dishes with 5 mL medium using featherweight tweezers. The worms were cultured at 37 °C and 5% CO2. After 24 h, stably paired couples were selected for inhibitor assays.
The initial screening by the Giessen team covered the 250 compounds of the OGHL, and in a subsequent, second screening approach, an additional 58 analogues of the compounds OGHL22 and OGHL121, which were tested on S. mansoni couples in vitro. For each compound, three replicates of five couples randomised from different hamsters were used. The couples were transferred to 6-well plates (or 12-well plates) containing 2 mL pre-heated medium. For each compound, the stock solution was pre-diluted in pre-heated medium, and then added to each replicate, resulting in a final volume of 2.5 mL and a final concentration of 10 µM. A negative control was included for all assays. For this, three replicates were prepared with DMSO (0.1%) as volume substitution of the stock solution. The worms were cultured at 37 °C and 5% CO2. As physiological parameters, worm motility, pairing stability, and attachment were assessed after 4 h and 24 h. After 24 h, egg production was also estimated (see below).
For the first screening approach, the Giessen team evaluated pairing stability by counting couples at the time of scoring. Attachment was determined by counting the number of worms (couples or single worms) that were attached to any surface. Motility was scored on a scale of 0–4. The average activity of the worms in the negative control was used as a reference value for normal activity: 4 indicated increased activity, 3 normal activity, 2 reduced activity, 1 little activity with occasional head and tail movements and/or gut movement, 0 no activity for at least 20 s. The number of eggs was estimated after 24 h. Compared to the control, categories for egg production were defined as fewer eggs (score 0), similar numbers of egg (score 1) and more eggs (score 2). The corresponding percentages of the scores were determined based on three replicates. Score 0 corresponded to less than 50% eggs, score 1 to 50–200%, and score 2 to over 200% of the egg count compared to the negative control. The means of the scores were later normalized to the range 0–2 (0–200%).

For the next assay, the system named is Schistosoma mansoni. The following applies: cited from earlier work.
The subject of assay [1] is newly transformed schistosomula (NTS). Briefly: In vitro screening against newly transformed schistosomula (Basel). It is filed as cell-based, Schistosoma mansoni. The following applies: 10 µM, 72 h incubation, Basel team. The method, then: At the Basel lab, infected B. glabrata snails were placed for 4 h under a light source to initiate the shedding of cercariae, which were collected, mechanically transformed into NTS, and kept in M199 medium supplemented with 5% fetal calf serum (FCS), 1% Mäsermix, and 1% penicillin/streptomycin (pen./strep.) 10,000 U/ml, at 37 °C and 5% CO2 [27]. To collect adult S. mansoni, mesenteric veins of infected hamsters were dissected on day 49 post-infection. The worms were placed in supplemented RPMI 1640 medium (containing 5% FCS, 1% pen., and 100 μg/ml strep.) and incubated at 37 °C with 5% CO2 until further use.
The Basel team performed the screening as follows: the stock solutions of each compound from the library (10 mM) were diluted with M199 medium (supplemented with 1% pen./strep., 1% Mäsermix, 5% FCS) and NTS solution (0.7 NTS/µL) in a transparent flat-bottom 96-well plate (Sarstedt, Switzerland), resulting in a final volume of 250 µL, 30–40 NTS, and a drug concentration of 10 µM. For adults, the drugs were diluted to 10 µM in 2 mL with RPMI 1640 medium (supplemented with 1% pen./strep. and 5% FCS) in a 24-well plate (Sarstedt, Switzerland), and three schistosome couples were added. […] For both life stages, DMSO served as a negative control (< 1% of the final volume). The plates were incubated at 37 °C and 5% CO2. […]

These results are taken from paper PMC11796224, “Merck Open Global Health Library in vitro screening against Schistosoma mansoni identified two new substances with antischistosomal activities for further development” (Parasites & Vectors, 2025).

Like-named read-outs stand apart in the source and are kept apart here. Where only a bound is given, the exact number is not on record here.

In general, EC50 refers to the concentration giving half of the maximal effect.

`COc1cc(C(=O)Nc2cn(Cc3ccc(Cl)c(Cl)c3)nn2)ccc1-n1cnc(C)c1` [OGHL00219]: the “Effect on egg production” value with adult S. mansoni couples is listed as “affected”. The same measure, in the same setting: the value for `O=C(O)c1ccc(-c2nc(NCc3ccc4c(c3)OCO4)c3cc(Cl)sc3n2)cc1` [OGHL00093] was “affected”; that for `COc1ccc(OCC(=O)O)cc1-c1cn2cc(C(=O)NCCc3c(OC)cc(Cl)cc3OC)sc2n1` [OGHL00248] was “affected”. For `O=C(C1CCCCC1)N1CC(=O)N2CCc3ccccc3[C@H]2C1` [OGHL00245], in the assay on adult S. mansoni couples, the “Couples separated after 4 h” value is greater than 50% and the “Couples separated after 24 h” value was “separation of all couples”. Consider `O=C(O)c1ccc(-c2nc(NCc3ccccc3)c3c4c(sc3n2)CCCC4)cc1` [OGHL00079], for which the “Effect on egg production” value in the assay on adult S. mansoni couples is “affected”. The same measure, in the same setting: the same measure for `CCc1cc(C)c(C(=O)N=C(N)N)cc1S(C)(=O)=O` [OGHL00053]: “affected”. In the case of `O=C(C1CCCCC1)N1CC(=O)N2CCc3ccccc3C2C1` (centres unmarked) [PZQ, praziquantel], the “Motility score in the initial approach” value with adult S. mansoni couples (within 24 h) was “about 0”. The EC50 in the assay with Schistosoma mansoni (at 4 h) is 0.1 µg/mL; in the assay on Schistosoma mansoni (at 72 h, ref 32, read-out: EC50), 100 nM; in the assay with Schistosoma mansoni (at 72 h, ref 33) it was 0.05 µg/mL. As for `CCCCCCN(Cc1ccc(C#Cc2ccc(CCCC)cc2)cc1)c1ccc(O)c(C(=O)O)c1` [OGHL00126], in the assay on adult S. mansoni couples, the “Effect on egg production” value is “affected”.

Consider `COc1nc(/C=C/c2nc3n(n2)CCCC3c2ccccc2C(F)(F)F)ccc1-n1cnc(C)c1` (centres unmarked) [OGHL00208], for which, in the assay on adult S. mansoni couples, the “Effect on egg production” value is “affected”. As to `COc1ccc(OCC(N)=O)cc1-c1cn2cc(C(=O)NCCc3c(OC)cccc3OC)sc2n1` [OGHL00241], the “Effect on egg production” value in the assay on adult S. mansoni couples is “affected”. For the compound `CCCCc1nc2ccn(Cc3ccccc3C(=O)O)c(=O)c2n1Cc1ccc(-c2ccccc2-c2nn[nH]n2)cc1` [OGHL00034], the “Effect on egg production” value in the assay on adult S. mansoni couples was “affected”. On to `O=C(C1CCCCC1)N1CC(=O)N2CCc3ccccc3[C@@H]2C1` [OGHL00244, (R)-PZQ, reference compound], for which, in assay [1], the “Activity against NTS” value is “greater than 65%”. In the assay on adult S. mansoni couples (adult couples, Giessen team), the “Attachment after 4 h” value is reported as “strong effects on attachment capacity”, the “Pairing stability after 4 h” value is on record as “no effect on pairing stability” and the “Pairing stability after 24 h” value is listed as “no effect on pairing stability”. Moreover, the “Effect on egg production” value in the assay with adult S. mansoni couples is given as “drastically reduced”. Regarding `COc1ccc(CNc2nc(CCCCC(=O)O)nc3sc4c(c23)CCCC4)cc1Cl` [OGHL00092], in the assay on adult S. mansoni couples, the “Effect on egg production” value is “affected”. Consider `Cc1cc(C2CCC2)c(S(C)(=O)=O)cc1C(=O)N=C(N)N` [OGHL00061], for which, in the assay on adult S. mansoni couples, the “Effect on egg production” value is “affected”. The same measure, in the same setting: the value for `COC(=O)c1cc(C(=O)N=C(N)N)c(C)cc1C` [OGHL00094] was “affected”; that for `COc1ccc(CNc2nc(CCCCC(=O)O)nc3sc4ccccc4c23)cc1Cl` [OGHL00101] was “affected”; that for `CCCSc1cc(C)c(C(=O)N=C(N)N)cc1S(C)(=O)=O` [OGHL00050] was “affected”. On the same count and under the same terms, the same measure for `CC1(C)Oc2ccc(C#N)cc2[C@H](n2ccccc2=O)[C@H]1O` [OGHL00027]: “affected”.
